# From patent US8552048B2, “Phosphoramidate alkylator prodrugs for the treatment of cancer” (Threshold Pharmaceuticals, Inc., priority 2006, dated 2013)
# Read-outs that look alike come from different tables or passages of the source.
# Key:
# [1] = test system: PC-3 human prostate tumor; assay: GFP PC3 prostate orthotopic model; format: in vivo, mice
# [2] = Pharmacokinetics after repeated administration (Q7D×3) to dogs; format: in vivo; details: dog; for clearance / half-life / AUC / Cmax / Vd: TH302 in dogs; for half-life: read-out: Half-Life (converted); for Cmax: read-out: Cmax; for Vd: read-out: Vss
# Description: (§1) These changes were reversible.
# [3] = Single-dose toxicity in dogs; format: in vivo
# Protocol: A single-dose of TH302 was administered to rats and dogs over 30 min in order to achieve a rapid increase to relatively high drug levels. Rats were administered 50, 100, and 200 mg/kg, and dogs at 8, 16 and 32 mg/kg of TH302. […] These changes at the lowest toxicity level were fully reversible within 2 weeks.
# [4] = Interspecies scaling (complex Dedrick analysis); details: 70-kg human
# Protocol: Pharmacokinetic studies were performed in male CD-1 (50 mg/kg i.p. or orally (p.o.)) or female nude mice (50 mg/kg i.v. or i.p.), male Sprague-Dawley rats (1, 5, 20 and 50 mg/kg i.v. and 100 mg/kg, p.o.), beagle dogs (20 mg/kg, i.v.) and cynomologus monkeys (20 mg/kg i.v.). Plasma TH302 concentrations were analyzed using a LC/MS method and the pharmacokinetic parameters computed using a noncompartmental method. Interspecies scaling was performed according to standard methods.
# Parts A, B, and C, below tabulate the pharmacokinetics of TH302 when administered to rats, Dogs, and monkeys.
# [5] = Repeat dose GLP study with dogs; format: in vivo
# Description: as §1
# [6] = Stability of ethanol formulation of TH302 by HPLC; format: physicochemical; details: for TH302 (%): 40 μg/mL in ethanol
# Protocol: A liquid formulation of TH302 in ethanol was prepared containing 1 mg TH302 in 1 mL of the solution. Aliquots were withdrawn from this formulation and diluted with ethanol to yield a 40 μg/mL formulation of TH302 in ethanol, which was incubated at 20° C. and 37° C. and the stability analyzed by high performance liquid chromatography (HPLC). The HPLC employed the following components and conditions: column (Alltech, Alltima C18, 50×4.6, 3 μm), mobile phase (water and acetonitrile), flow rate 0.8 mL/min, injection volume (10 μL), detection (UV detection at 325 nm and 254 nm), and column temperature (room temperature). The composition of the mobile phase was as tabulated below: […]
# [7] = Biodistribution by whole body autoradiography; format: in vivo, male Sprague Dawley rats; details: rats, [^14C] TH302 50 mg/kg single i.v. bolus
# Protocol: TH302 to rats. Five male Sprague Dawley rats were assigned to one dose group. Non-radiolabeled TH302 (0.06 g) was weighed into an appropriate formulation bottle, a solution of 153 μL of [^14C] TH302 was measured and transferred to the formulation bottle, followed by the addition of 6.85 mL of 50 PEG400 in saline. The resulting formulation was cold-sterilized by filtration through a 0.22 μm mesh size commercial filter. The dosing formulation was kept at ambient temperature and in the dark pending dose administration. Animals were administered radiolabelled TH302 by intravenous injection of the formulation at a dose of 50 mg/kg wherein a radioactivity of about 100 μCi was administered. Following administration of TH302, the animals were sacrificed at selected time-points and carcasses were flash-frozen and processed for sectioning. A series of sagittal and para-sagittal sections were obtained from each carcass and were exposed to highly sensitive film until adequate imprinting of radioactivity was obtained. The pictures obtained were analyzed semi-quantitatively using computerized densitometry.
# [8] = Pharmacokinetics in nude mice; format: in vivo; details: female, mouse, plasma
# [9] = test system: H460 human non small cell cancer (NSCLC) cells; assay: H460 tumor excision clonogenic assay (surviving fraction) under different oxygen levels; format: in vivo, mice; details: single 50 mg/kg i.v., tumors removed 24 h post treatment
# Protocol: H460 human non small cell cancer (NSCLC) cells were prepared in 30% or 50% matrigel in PRIM medium. Then 2×10^6 cells suspended in 50% matrigel were implanted subcutaneously in the right flank in 35 mice (0.2 mL/mouse), 0.5×10^6 cells suspended in 30% matrigel were similarly implanted in 30 mice. Mice bearing similar sized tumors, preferably ˜300 mm^3 were selected for TH302 administration. TH302 was formulated in saline and a single dose administered intravenously at 50 mg/kg.
# The mice were placed in 95% and 10% O2 chamber for 30 min before the dosing and returned to the chamber for 2 hours immediately after treatment. Twenty-four hours post treatment, tumors were removed. The tumor tissue was minced and obtain single cells were obtained by digesting the minced tissue with an enzyme cocktail for 15 min at 37° C. with stirring, and filtering through a 40 μm sterile mash. Cell numbers were counted by a coulter counter. After a serial dilution, the ells were placed in a 60 or 100 mm Petri dish and incubated at 37° C. for 8 to 10 days for the colonies to form. The colonies were counted after stained with crystal violet (0.25% in 95% ethanol). The plating efficiency (PE) was calculated by dividing the number of colonies formed by the number of cells seeded. The surviving fraction (SF) was calculated by dividing as the PE of treated cells by PE of the cells from saline control.
# [10] = in vivo, 16 mg/kg Q7D×3, Day 15
# [11] = plasma, intravenous, 4 mg/kg Q7D×3, Day 15
# [12] = plasma, intravenous, 8 mg/kg Q7D×3, Day 15
# [13] = plasma, intravenous, 16 mg/kg Q7D×3, Day 15
smiles,measurement,setting,value
Cn1c(COP(=O)(NCCBr)NCCBr)cnc1[N+](=O)[O-] [TH302],reduction in tumor volume,[1]; compared to final measurements in the vehicle group (day 31),84%
same,tumor growth delay (TGD),"[1]; single agent, Taxotere 12 mg/kg once a week for two weeks",16 days
same,clearance,"[2]; in vivo, 4 mg/kg Q7D×3, Day 15",80.7 mL/min/kg
same,half-life,"[2]; in vivo, 4 mg/kg Q7D×3, Day 15",16.3 min
same,clearance,"[2]; in vivo, 8 mg/kg Q7D×3, Day 15",72.5 mL/min/kg
same,half-life,"[2]; in vivo, 8 mg/kg Q7D×3, Day 15",15.2 min
same,AUC,[2]; [10],4260 ng·h/mL
same,clearance,[2]; [10],63.7 mL/min/kg
same,half-life,[2]; [10],17 min
same,AUC,[2]; [11],853 ng·h/mL
same,Cmax,[2]; [11],1580 ng/mL
same,Vd,[2]; [11],2.1 L/kg
same,AUC,[2]; [12],1910 ng·h/mL
same,Cmax,[2]; [12],3650 ng/mL
same,Vd,[2]; [12],1.78 L/kg
same,Cmax,[2]; [13],7100 ng/mL
same,Vd,[2]; [13],1.93 L/kg
same,AUC at 15 day,"[2]; plasma, intravenous, dogs, 8 mg/kg dose of TH302, read-out: drug exposure (AUC of TH302)",~1910 ng·h/mL
same,affected organs at the highest dose level,[3]; 32 mg/kg single dose,"bone marrow, kidney, thymus and intestine"
same,lethality,"[3]; single dose over 30 min, highest dose 32 mg/kg",lethality was observed
same,primary findings at the lowest toxicity level,[3]; single dose study,reduction in white blood cell counts
same,time to full reversal of changes at the lowest toxicity level,[3]; single dose study,≤ 2 weeks
same,predicted Cl,[4],109 L/h
same,predicted Vss,[4],493 L
same,human equivalent dose of the minimally toxic dose,[5]; 8 mg/kg dog dose divided by 1.8,about 4.5 mg/kg
same,minimally toxic dose,[5]; dog,8 mg/kg
same,bone marrow finding at the high dose level,"[5]; dogs, 16 mg/kg repeat dose",hypocellularity was also reported in the bone marrow
same,hematologic findings,"[5]; dogs, 4, 8, and 16 mg/kg repeat dose, particularly at the high dose level",leucopenia and neutropenia were evident
same,reversibility of changes,"[5]; dogs, repeat dose",reversible
same,TH302 (%),"[6]; 20° C., incubated 0 days",96.97%
same,TH302 (%),"[6]; 20° C., incubated 3 days",96.98%
same,TH302 (%),"[6]; 20° C., incubated 5 days",96.91%
same,TH302 (%),"[6]; 20° C., incubated 7 days",96.96%
same,TH302 (%),"[6]; 20° C., incubated 10 days",96.95%
same,TH302 (%),"[6]; 20° C., incubated 14 days",96.98%
same,TH302 (%),"[6]; 37° C., incubated 0 days",96.97%
same,TH302 (%),"[6]; 37° C., incubated 3 days",96.95%
same,TH302 (%),"[6]; 37° C., incubated 5 days",96.98%
same,TH302 (%),"[6]; 37° C., incubated 7 days",96.98%
same,TH302 (%),"[6]; 37° C., incubated 10 days",96.30%
same,TH302 (%),"[6]; 37° C., incubated 14 days",96.01%
same,TH302 (%),"[6]; 37° C., incubated 24 days",95.46%
same,stability of solution in ethyl alcohol,"[6]; 20° C., under the test conditions",stable
same,distribution of radioactivity,[7],"associated with the gastro-intestinal (GI) tract, its contents, and the kidney"
same,Vd,"[8]; intravenous, 50 mg/kg, read-out: apparent steady-state volume of distribution (Vss)",0.542 L/kg
same,clearance,"[8]; intravenous, 50 mg/kg, read-out: total body clearance (Cl) (converted)",72.8 mL/min/kg
same,half-life,"[8]; iv, 50 mg/kg i.v.",8.2 min
same,half-life,"[8]; po, 50 mg/kg p.o. (so in the source)",9.7 min
same,mean surviving fraction (SF),[9]; mice breathing 10% O2,2.58%
same,mean surviving fraction (SF),[9]; mice breathing 21% O2,5.76%
same,mean surviving fraction (SF),[9]; mice breathing 95% O2,50.38%
